Assay results from ChEMBL document CHEMBL1201862, “PubChem BioAssay data set” (2004).
Calls of active or inactive are those of the source.

Legend:
[1] = molecular target: RNA-editing ligase 1, mitochondrial (Trypanosoma brucei brucei, UniProt P86926); assay: inhibition of trypanosome RNA editing ligase – biochemical, fluorescence, Trypanosoma brucei, dose response (AID 1117295); type: functional
[2] = molecular target: G-protein coupled receptor 183 (Homo sapiens, UniProt P32249); assay: SAR confirmation of small molecule antagonists of the EBI2 receptor via a luminescent beta-arrestin assa.; type: functional
G-protein coupled receptor 183, sequence (P32249 whole entry): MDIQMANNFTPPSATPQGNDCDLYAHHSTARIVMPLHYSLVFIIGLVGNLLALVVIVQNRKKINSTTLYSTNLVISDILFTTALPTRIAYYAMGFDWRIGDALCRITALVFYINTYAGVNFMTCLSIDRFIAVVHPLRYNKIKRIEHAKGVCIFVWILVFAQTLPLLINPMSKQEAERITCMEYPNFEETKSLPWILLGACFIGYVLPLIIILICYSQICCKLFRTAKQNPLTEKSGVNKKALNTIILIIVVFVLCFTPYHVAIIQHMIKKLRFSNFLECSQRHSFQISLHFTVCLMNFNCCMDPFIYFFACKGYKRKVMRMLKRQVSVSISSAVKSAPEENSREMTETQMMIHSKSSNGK

[3] = BioA aminotransferase inhibition, coupled fluorescent readout – biochemical, coupled fluorescence displacement, 20-point, dry powder, dose response (AID 743357); type: functional
[4] = molecular target: T1, Heat shock factor protein 1 (Mus musculus, UniProt P38532); assay: decrease of HSF1-responsive luciferase luminescence – cell-based, NIH3T3, dose retest, confirmation (AID 2382); type: functional;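 further: NIH3T3 fibroblasts with HSF1-driven luciferase reporter stressed by proteasome inhibitor MG132; luminescence from HSF1-driven luciferase expression after 8 hours of MG132 stress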
T1 sequence (P38532 whole entry): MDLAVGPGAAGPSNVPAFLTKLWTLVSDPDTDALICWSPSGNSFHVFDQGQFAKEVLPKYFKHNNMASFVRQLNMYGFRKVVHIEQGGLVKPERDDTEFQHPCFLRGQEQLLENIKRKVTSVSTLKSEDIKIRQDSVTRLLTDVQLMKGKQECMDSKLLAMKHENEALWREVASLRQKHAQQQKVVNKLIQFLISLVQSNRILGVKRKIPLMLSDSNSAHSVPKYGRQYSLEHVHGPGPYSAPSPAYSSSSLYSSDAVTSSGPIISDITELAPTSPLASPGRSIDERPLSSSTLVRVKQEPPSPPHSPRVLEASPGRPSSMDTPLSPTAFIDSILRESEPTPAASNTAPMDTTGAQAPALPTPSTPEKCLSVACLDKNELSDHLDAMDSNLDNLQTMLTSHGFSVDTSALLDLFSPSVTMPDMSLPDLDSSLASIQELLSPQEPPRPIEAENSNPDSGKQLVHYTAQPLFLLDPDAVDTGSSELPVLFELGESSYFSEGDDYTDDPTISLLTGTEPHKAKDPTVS

[5] = molecular target: E3 ubiquitin-protein ligase Mdm2 (Homo sapiens, UniProt Q00987); assay: MDM2-luc reporter signal enhancers, multi-concentration potency testing, MDM2 ubiquitin-protein ligase inhibitor program, whole-cell format, luminescence detection, 384-well microplate (AID 1394); type: functional;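 further: MDM2 E3 inhibitors raise luminescence so EC50 is for signal enhancement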
E3 ubiquitin-protein ligase Mdm2, sequence (Q00987 whole entry): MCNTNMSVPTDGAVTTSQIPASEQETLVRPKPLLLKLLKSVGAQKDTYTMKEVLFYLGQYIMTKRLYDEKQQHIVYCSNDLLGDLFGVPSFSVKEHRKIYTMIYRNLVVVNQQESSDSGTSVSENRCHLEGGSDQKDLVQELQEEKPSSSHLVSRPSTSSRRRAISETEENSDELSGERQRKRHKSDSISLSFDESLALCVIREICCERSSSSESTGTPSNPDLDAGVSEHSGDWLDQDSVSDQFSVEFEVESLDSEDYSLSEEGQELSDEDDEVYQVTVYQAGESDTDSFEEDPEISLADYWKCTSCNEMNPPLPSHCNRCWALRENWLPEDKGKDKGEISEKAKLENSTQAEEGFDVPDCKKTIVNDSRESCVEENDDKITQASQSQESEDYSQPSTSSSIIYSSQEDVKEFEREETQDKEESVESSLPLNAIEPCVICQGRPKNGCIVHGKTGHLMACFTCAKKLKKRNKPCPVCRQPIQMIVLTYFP

[6] = P. falciparum Dd2 growth inhibitors, dose response, SYBR Green, cherry-picked samples (AID 1159567); type: functional, cell-based
[7] = toxicity to human hepatoma HepG2 cells – cell-based, cherry-picked samples, cytotoxicity control, dose response (AID 1159577); type: functional
Estrogen receptor beta = Estrogen receptor beta (Homo sapiens, UniProt Q92731);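 further: recombinant ER-beta bound to coactivator SRC1 peptide in presence of estradiol agonist; inhibitors block coactivator peptide binding and lower the FRET signal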
Estrogen receptor beta, sequence (Q92731 whole entry): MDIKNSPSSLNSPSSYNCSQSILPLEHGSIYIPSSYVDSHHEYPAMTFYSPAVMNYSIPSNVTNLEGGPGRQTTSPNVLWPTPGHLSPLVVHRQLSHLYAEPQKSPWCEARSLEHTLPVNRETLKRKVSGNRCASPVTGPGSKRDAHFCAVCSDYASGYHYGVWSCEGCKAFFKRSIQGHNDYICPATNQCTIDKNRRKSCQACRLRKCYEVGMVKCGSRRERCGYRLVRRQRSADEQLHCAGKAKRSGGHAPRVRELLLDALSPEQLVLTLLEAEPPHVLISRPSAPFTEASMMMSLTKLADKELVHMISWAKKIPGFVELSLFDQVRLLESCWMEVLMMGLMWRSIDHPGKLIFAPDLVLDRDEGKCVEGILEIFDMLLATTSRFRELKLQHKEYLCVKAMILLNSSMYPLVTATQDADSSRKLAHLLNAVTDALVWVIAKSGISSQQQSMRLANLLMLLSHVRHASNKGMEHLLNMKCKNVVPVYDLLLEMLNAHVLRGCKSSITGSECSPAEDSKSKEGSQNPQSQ

[8] = mouse fibroblast viability loss – cell-based, cherry-pick samples, set 2, cytotoxicity control for T. cruzi growth inhibitor project, dose response (AID 651817); type: functional; settings: NIH3T3
[9] = anti-trypanosomal activity in BESM host cells – imaging, CA-I/72 strain, bovine embryo skeletal muscle, dry powder, dose response (AID 651885); type: functional, cell-based
[10] = intracellular Trypanosoma cruzi inhibitors in host cells – cell-based, plate reader, cherry-pick samples, set 3, dose response (AID 651818); type: functional;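 further: compounds incubated with infected cells for about four days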
[11] = Inhibition of Plasmodium falciparum NF54 Measured in Cell-Based System Using Plate Reader - 2138-11_Inhibitor_Dose_CherryPick_Activity.; type: functional
[12] = T. cruzi growth inhibition in host cells, dose response, cell-based, plate reader, dry powder, set 2 (AID 652275); type: functional
[13] = Trypanosoma cruzi replication inhibitors in host cells – cell-based, plate reader, dry powder samples, dose response (AID 651845); type: functional
[14] = African trypanosome bloodstream form growth inhibition – STIB900 strain, plate reader, cherry pick, dose response (AID 651893); type: functional, cell-based, Trypanosoma brucei rhodesiense; settings: Trypanosoma brucei
[15] = Inhibition of T. cruzi Tulahuen strain amastigotes in L-6 muscle cells Measured in Cell-Based and Microorganism Combination System Using Plate Reader - 2138-03_Inhibitor_Dose_CherryPick_Activity.; type: functional; settings: Rattus norvegicus, L6
[16] = L6 myocyte viability loss – cell-based, plate reader, cherry-pick, cytotoxicity control, dose response (AID 651896); type: functional
[17] = antileishmanial activity on axenic amastigotes – plate reader, cherry pick, dose response (AID 651891); type: functional, cell-based; settings: Leishmania donovani
[18] = molecular target: Melanin-concentrating hormone receptor 1 (Homo sapiens, UniProt Q99705); assay: Fluorescence-based counterscreen for antagonists of the G-protein coupled receptor 7 (GPR7): cell-based high throughput dose response assay to identify antagonists of the melanin-concentrating hormone receptor 1 (MCHR1).; type: functional
Melanin-concentrating hormone receptor 1, sequence (Q99705 whole entry): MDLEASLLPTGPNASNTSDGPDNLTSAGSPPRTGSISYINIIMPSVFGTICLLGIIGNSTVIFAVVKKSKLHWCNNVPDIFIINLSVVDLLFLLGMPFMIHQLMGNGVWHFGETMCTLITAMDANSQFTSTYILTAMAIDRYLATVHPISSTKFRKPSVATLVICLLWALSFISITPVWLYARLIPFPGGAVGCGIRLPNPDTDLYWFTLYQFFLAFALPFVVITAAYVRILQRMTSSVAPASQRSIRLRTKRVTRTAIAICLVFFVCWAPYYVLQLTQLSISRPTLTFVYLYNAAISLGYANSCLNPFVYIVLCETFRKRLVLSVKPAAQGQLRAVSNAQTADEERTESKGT

[19] = molecular target: Neuropeptides B/W receptor type 1 (Homo sapiens, UniProt P48145); assay: Fluorescence-based dose response cell-based high throughput screening assay to identify antagonists of the G-protein coupled receptor 7 (GPR7). [Related pubchem assays: 1952 (Screening assay (GPR7 antagonists).), 1880 (Summary AID.)]; type: functional
Neuropeptides B/W receptor type 1, sequence (P48145 whole entry): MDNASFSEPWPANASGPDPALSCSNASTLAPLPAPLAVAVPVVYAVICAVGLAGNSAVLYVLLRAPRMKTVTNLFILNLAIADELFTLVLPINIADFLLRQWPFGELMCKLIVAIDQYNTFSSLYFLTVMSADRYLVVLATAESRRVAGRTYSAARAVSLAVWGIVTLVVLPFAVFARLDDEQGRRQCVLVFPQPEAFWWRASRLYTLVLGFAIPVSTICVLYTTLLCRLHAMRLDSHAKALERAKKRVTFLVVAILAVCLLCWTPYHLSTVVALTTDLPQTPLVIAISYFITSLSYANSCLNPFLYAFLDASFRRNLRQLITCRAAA

[20] = molecular target: Diphosphomevalonate decarboxylase (Streptococcus pneumoniae serotype 2 (strain D39 / NCTC 7466), UniProt Q9FD53); assay: diphosphomevalonate decarboxylase inhibitor confirmation – biochemical, cuvette format, coupled NADH fluorescence (AID 1028); type: functional
Diphosphomevalonate decarboxylase, sequence (Q9FD53 whole entry): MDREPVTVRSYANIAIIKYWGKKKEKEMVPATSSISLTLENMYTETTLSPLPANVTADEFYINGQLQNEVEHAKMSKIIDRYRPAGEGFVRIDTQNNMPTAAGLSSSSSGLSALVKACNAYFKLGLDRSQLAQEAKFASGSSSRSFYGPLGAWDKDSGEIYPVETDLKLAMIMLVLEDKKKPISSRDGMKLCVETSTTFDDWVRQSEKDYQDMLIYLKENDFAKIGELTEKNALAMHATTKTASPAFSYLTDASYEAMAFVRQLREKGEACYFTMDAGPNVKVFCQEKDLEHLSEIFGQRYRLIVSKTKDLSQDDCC

Prothrombin = Prothrombin (Homo sapiens, UniProt P00734); assay: Thrombin 1536 HTS Dose Response Confirmation. [Related pubchem assays: 1046 (Thrombin 1536 HTS; hits were confirmed in this assay)]; type: functional
Vero [21] = assay: Vero 76 cell viability after compound exposure – Vero 76 cells, synthesized analogs, cytotoxicity control for West Nile virus antiviral project, SAR follow-up (AID 2414); type: functional; settings: Chlorocebus sabaeus
Vero [22] = assay: Vero cell viability after compound exposure – synthesized analogs, set II, cytotoxicity control for West Nile virus antiviral project, SAR follow-up (AID 2402); type: functional; settings: Chlorocebus sabaeus
Vero [23] = assay: inhibition of WNV-induced cytopathic effect – cell-based, CPE readout (AID 1621); type: functional; settings: Chlorocebus sabaeus
[24] = loss of viability in HepG2 cells – cell-based, CellTiter-Glo, cherry-picked, cytotoxicity control for Shn3 inhibitor project, dose response (AID 624134); type: functional
[25] = fluconazole-exposed Candida albicans growth modulators – fluorescence, retest, confirmation (AID 2467); type: functional, cell-based
[26] = reduction of Shn3 3'UTR-driven luciferase in osteoblasts – cell-based, Clone20 osteoblasts, firefly luciferase, cherry-picked, dose response (AID 624132); type: functional;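 further: firefly luciferase luminescence from reporter carrying the Shn3 3'UTR in osteoblasts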
[27] = HEK-293T cell viability reduction – luminescence, B-cell screen hits, cytotoxicity control for BCR NF-kB inhibitor project, dose response (AID 489021); type: functional, cell-based;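 further: HEK-293T cells carrying an NF-kB luciferase reporter; cells exposed to compound for about 14 hours before viability readout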
INS1 = assay: INS-1E survival protection against cytokine death – cell-based, luminescence, retest, dose response (AID 449756); type: functional; settings: Rattus norvegicus;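 further: cell death triggered by IL-1 beta plus TNF-alpha plus IFN-gamma mixture; protective hits raise ATP signal compared with cytokine alone wells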
[28] = NIH-3T3 fibroblast cytotoxicity, dose response, cytotoxicity control, cell-based, fluorescence, Alamar Blue, secondary assay (AID 2327); type: functional;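 further: NIH-3T3 mouse fibroblasts cultured with fluconazole at 8 µg/mL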
[29] = non-specific 3'UTR reporter inhibition in Clone20-Shn3RL – cell-based, Renilla luciferase, cherry-picked, counter-screen for Shn3 inhibitor project, dose response (AID 624133); type: functional
[30] = molecular target: COUP transcription factor 2 (Homo sapiens, UniProt P24468); assay: Luminescence-based cell-based high throughput dose response assay to identify inhibitors of COUP-TFII (NR2F2).; type: functional;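 further: HEK293 cells transiently cotransfected with COUP-TFII expression vector and reporter; luciferase reporter luminescence driven by COUP-TFII from the pX2-168 reporter plasmid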
COUP transcription factor 2, sequence (P24468 whole entry): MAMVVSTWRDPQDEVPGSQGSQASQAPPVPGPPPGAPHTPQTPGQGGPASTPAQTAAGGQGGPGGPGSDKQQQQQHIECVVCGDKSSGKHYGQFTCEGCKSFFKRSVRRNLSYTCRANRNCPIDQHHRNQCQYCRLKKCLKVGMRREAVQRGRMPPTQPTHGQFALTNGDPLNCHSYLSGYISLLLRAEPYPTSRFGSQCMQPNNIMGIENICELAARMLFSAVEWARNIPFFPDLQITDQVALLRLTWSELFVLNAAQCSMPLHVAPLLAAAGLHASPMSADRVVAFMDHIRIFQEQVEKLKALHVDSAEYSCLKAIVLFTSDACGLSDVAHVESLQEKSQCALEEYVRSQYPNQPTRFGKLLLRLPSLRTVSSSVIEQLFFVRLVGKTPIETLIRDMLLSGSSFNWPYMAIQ

Galanin receptor type 2 = Galanin receptor type 2 (Homo sapiens, UniProt O43603); assay: Dose Response cell-based high-throughput screening assay to identify antagonists of galanin receptor 2 (GALR2). [Related pubchem assays: 828, 866 ]; type: functional
Galanin receptor type 2, sequence (O43603 whole entry): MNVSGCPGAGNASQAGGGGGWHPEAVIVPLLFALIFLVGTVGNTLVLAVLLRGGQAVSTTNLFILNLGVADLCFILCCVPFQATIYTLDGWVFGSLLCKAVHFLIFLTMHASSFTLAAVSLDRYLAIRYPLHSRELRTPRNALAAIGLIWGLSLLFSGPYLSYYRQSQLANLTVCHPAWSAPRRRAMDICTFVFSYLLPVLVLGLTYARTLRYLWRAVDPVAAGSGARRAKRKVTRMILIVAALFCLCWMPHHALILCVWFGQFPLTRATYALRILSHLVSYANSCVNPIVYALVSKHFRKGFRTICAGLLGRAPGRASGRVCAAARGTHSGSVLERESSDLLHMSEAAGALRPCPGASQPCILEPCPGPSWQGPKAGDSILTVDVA

Cytochrome P450 2C19 = Cytochrome P450 2C19 (Homo sapiens, UniProt P33261); assay: qHTS Assay for Inhibitors and Substrates of Cytochrome P450 2C19. [Related pubchem assays: 410 ]; type: ADME; settings: read-out: Potency
Cytochrome P450 2C19, sequence (P33261 whole entry): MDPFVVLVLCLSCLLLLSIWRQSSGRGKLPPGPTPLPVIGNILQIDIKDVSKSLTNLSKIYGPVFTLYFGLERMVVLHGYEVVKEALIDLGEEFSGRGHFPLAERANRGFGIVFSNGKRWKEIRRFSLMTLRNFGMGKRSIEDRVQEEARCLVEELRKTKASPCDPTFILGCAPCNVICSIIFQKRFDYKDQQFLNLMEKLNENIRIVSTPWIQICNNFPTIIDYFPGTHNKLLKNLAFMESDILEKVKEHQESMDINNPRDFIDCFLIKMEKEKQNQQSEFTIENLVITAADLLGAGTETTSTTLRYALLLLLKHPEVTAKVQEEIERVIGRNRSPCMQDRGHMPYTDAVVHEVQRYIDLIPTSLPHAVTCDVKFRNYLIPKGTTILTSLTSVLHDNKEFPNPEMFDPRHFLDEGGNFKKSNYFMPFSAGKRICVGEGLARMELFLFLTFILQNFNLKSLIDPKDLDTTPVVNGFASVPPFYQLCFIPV

[31] = HIV-1 Vif–A3G interaction blockers – biochemical, TR-FRET, GST-Vif 1-94, biotin-A3G peptide, dose response retest, primary screen (AID 1117319); type: functional;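 further: TR-FRET signal of purified GST-Vif binding a biotinylated A3G peptide; inhibitors lower the FRET signal by blocking Vif and A3G binding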
[32] = viability loss in Vero cells – cytotoxicity control for Vif-APOBEC3G degradation inhibitor project, dose response (AID 1117358); type: functional; settings: Vero
Protein Tat = molecular target: T2, Protein Tat (Human immunodeficiency virus type 1 group M subtype B (isolate HXB2)(HIV-1), UniProt P04608); type: functional;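 further: tat binding to TAR RNA read out by fluorescence polarization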
T2 sequence (P04608 whole entry): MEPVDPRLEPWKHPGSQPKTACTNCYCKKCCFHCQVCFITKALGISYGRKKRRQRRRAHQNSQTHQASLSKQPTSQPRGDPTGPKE

[33] = IC50 of Artemis nuclease activity blockers – biochemical, fluorescence intensity, dose response (AID 720701); type: functional;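 further: Artemis endonuclease enzyme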
[34] = viability inhibitors of stage V gametocytes – luminescence, dose response (AID 1117278); type: functional, cell-based;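 further: gametocytes exposed to compound for 24 hours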
[35] = viability loss in human Jurkat cells – cell-based, luminescence, cytotoxicity control for P. falciparum gametocyte viability project, dose response (AID 1117277); type: functional;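 further: potency reflects loss of cellular ATP meaning fewer viable cells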
[36] = molecular target: Solute carrier family 12 member 2/member 5 (Homo sapiens, UniProt P55011+Q9H2X9); assay: KCC2 and NKCC1 inhibition by rubidium flux, cell-based, NKCC1 counter-screen (AID 1734); type: functional, HEK293
[37] = molecular target: T3, Corticotropin-releasing factor receptor 2/Corticotropin-releasing factor-binding protein (Homo sapiens, UniProt P24387+Q13324); assay: activators of CRF receptor 2 with binding protein – uHTS hits, confirmation (AID 602473); type: functional; settings: read-out: EC50_Mean
T3 sequence (Q13324 whole entry): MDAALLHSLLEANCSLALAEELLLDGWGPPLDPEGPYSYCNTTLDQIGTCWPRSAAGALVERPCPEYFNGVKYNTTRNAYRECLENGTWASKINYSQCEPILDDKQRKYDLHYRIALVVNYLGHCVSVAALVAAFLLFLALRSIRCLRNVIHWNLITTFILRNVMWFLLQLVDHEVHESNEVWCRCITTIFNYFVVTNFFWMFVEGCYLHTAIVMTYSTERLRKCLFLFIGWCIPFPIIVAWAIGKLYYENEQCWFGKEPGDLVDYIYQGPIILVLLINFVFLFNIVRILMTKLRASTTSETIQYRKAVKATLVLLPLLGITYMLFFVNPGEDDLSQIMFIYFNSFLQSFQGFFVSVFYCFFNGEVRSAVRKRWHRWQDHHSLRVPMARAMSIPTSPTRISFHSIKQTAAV
T3 sequence (P24387 whole entry): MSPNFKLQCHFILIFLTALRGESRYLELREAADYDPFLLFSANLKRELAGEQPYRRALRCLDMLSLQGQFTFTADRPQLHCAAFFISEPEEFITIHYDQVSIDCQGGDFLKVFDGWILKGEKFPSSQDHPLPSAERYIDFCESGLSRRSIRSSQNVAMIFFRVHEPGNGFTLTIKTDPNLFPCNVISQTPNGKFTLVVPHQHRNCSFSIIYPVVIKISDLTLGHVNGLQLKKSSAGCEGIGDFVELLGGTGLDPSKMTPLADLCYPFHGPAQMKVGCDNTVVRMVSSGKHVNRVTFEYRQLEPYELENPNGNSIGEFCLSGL

[38] = molecular target: T3, Corticotropin-releasing factor receptor 2/Corticotropin-releasing factor-binding protein; assay: Dose Response confirmation of uHTS hits for small molecule antagonists of the CRF-binding protein and CRF-R2 receptor complex.; type: functional; settings: read-out: IC50_Mean

RNA-editing ligase 1, mitochondrial, sequence (P86926 whole entry): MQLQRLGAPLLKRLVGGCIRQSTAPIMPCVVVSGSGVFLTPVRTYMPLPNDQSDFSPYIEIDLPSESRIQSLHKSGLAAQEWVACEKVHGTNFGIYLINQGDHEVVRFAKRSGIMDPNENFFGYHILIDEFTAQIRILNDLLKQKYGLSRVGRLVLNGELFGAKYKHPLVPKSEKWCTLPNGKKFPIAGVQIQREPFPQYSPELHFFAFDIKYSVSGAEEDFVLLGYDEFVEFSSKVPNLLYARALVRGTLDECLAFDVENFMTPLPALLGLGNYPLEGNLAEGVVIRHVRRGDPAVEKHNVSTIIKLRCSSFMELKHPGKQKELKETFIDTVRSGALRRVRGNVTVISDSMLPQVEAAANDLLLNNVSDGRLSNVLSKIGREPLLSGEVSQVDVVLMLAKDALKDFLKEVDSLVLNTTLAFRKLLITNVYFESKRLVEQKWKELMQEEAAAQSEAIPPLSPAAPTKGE

Cc1c(P(=S)(c2ccccc2)c2ccccc2)n2ccccc2[n+]1C/C=C/c1ccccc1
IC50 [1]: > 96.6 µM (inactive)

Cc1cc(CN2CCN(C(=O)/C=C/c3ccc(Br)cc3)CC2)ccc1F
IC50 [2]: 0.0015 µM (active)

CN1c2ccc(-c3cccc(F)c3)cc2[C@H]2[C@H](CCN2C(=O)CCCCCCC(=O)O)[C@H]1CO
AC50 [3]: 16.7 µM (active)

CCOC(=O)/C=C/C(=O)Nc1ccccc1-c1ccccc1NC(=O)/C=C/C(=O)OCC
EC50 [4]: 14.4 µM (active) | EC50 [5]: 4.34 µM (active)

COc1ccccc1NC(=O)N1CCCCN2[C@@H](CO)[C@@H](c3ccc(C#CC4CC4)cc3)[C@@H]2C1
AC50 [6]: 1.03 µM (active) | AC50 [7]: 9.69 µM (active)

CCCCCCN/C=C1\C(=O)CC(C)(C)C(C(=O)OC)C1=O (centres undefined)
IC50 (Estrogen receptor beta): > 50 µM (not active)

C[C@H]1CN([C@@H](C)CO)C(=O)c2cccc(NC(=O)c3ccncc3)c2O[C@@H]1CN(C)Cc1ccc(C(F)(F)F)cc1
AC50 [8]: 39 µM (inactive) | IC50 [9]: 0.00601 µM (active) | AC50 [10]: 0.304 µM (active) | IC50 [11]: 2.95 µM (inactive) | AC50 [12]: 0.0127 µM (active) | AC50 [13]: 0.0127 µM (active) | IC50 [14]: 3.49 µM (inactive) | IC50 [15]: 2.95 µM (inactive) | IC50 [16]: 45.5 µM (inactive) | IC50 [17]: 16.3 µM (inactive)

OC1(c2ccc(F)cc2)CC2CCC(C1)N2Cc1nnnn1C1CCCCC1 (centres undefined)
IC50 [18]: 24 µM (not active) | IC50 [19]: 28.3 µM (not active)

O=C(c1cccc(-n2sc3ccccc3c2=O)c1)N1CCCC1
IC50 [20]: 16.5 µM (active)

COc1cccc(-n2c(SCC(=O)Nc3ccc4c(c3)CCC4)nc3ccccc3c2=O)c1
IC50 (Prothrombin): > 50 µM (not active) | CC50 (Vero [21]): > 66.6 µM (active) | CC50 (Vero [22]): > 100 µM (active)

Cc1ccc(-c2cc(C(=O)NCCCN3CCCC3)c3ccccc3n2)cc1C
IC50 (Vero [23]): 21.8 µM (active)

Cc1ccc(S(=O)(=O)CC2CSc3nc4ccccc4n32)cc1 (centres undefined)
AC50 [24]: 0.592 µM (active) | EC50 [25]: 1.15 µM (active) | AC50 [26]: 0.347 µM (active) | IC50 [27]: > 80 µM (inactive) | AC50 (INS1): 3.55 µM (active) | EC50 [28]: > 160 µM (inactive) | AC50 [29]: 24.4 µM (active) | IC50 [30]: 4.21 µM (active) | IC50 (Galanin receptor type 2): > 42 µM (not active)

CCCn1c(=O)[nH]c2nc(-c3ccc(S(=O)(=O)O)cc3)[nH]c2c1=O
AC50 (Cytochrome P450 2C19): 7.94 µM (inconclusive)

COc1ccc(C2CC(c3ccccc3)n3nc(NC(=O)c4cccs4)nc3N2)cc1 (centres undefined)
IC50 [31]: > 100 µM (active) | CC50 [32]: > 40 µM (active) | IC50 (Protein Tat): > 100 µM (active) | IC50 [33]: 6.96 µM (active)

Cc1cc(S(=O)(=O)N(Cc2ccccc2F)C2CC2)ccc1-n1cnnn1
IC50 [34]: > 109 µM (inactive) | IC50 [35]: > 83.2 µM (inactive)

O=C(NCCOc1ccccc1F)c1ccccc1SCc1ccc(F)cc1
IC50 [36]: 2.2 µM (active) | EC50 [37]: > 53 µM (inactive) | IC50 [38]: > 47.1 µM (inactive)
